Source: patent US20250213563A1, “SUBSTITUTED PYRIMIDIN-4(3H)-ONES FOR USE IN TREATING CANCER” (NAVIRE PHARMA, INC., priority 2021, published 2025)
Entries after “also recorded” stand apart in the source; their conditions may differ.

Tests used:
[1] = biological target: T1, phosphatase domain of human SHP2 (Homo sapiens, UniProt Q06124); assay: SHP2 enzymatic assay (DiFMUP), phosphatase domain; assay type: biochemical; conditions: at up to 50 μM
T1 construct: phosphatase domain of human SHP2 (amino acid Ala237-Ile529); 6xHis (TEV site) (N, cleaved yes); made in house; host or cells: E. coli BL21 (DE3)
T1 sequence (Q06124 237-529): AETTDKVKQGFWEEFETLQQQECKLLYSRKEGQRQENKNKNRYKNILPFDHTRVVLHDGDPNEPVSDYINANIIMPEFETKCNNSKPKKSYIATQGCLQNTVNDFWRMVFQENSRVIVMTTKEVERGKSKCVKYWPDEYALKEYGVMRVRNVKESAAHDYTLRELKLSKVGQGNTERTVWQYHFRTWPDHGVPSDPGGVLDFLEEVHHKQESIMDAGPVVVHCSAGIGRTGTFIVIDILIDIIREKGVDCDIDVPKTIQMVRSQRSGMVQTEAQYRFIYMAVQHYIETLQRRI
Experimental: Protein purification: The recombinant DNA for full-length human SHP2 (amino acid 1-597) or the phosphatase domain of human SHP2 (amino acid Ala237-Ile529) was cloned into a pET30 vector (Sigma #69909-3), which was modified to contain a TEV protease site after the N-terminal 6×His tag. The expression vector was transformed into E. coli BL21 (DE3) (NEB #C2527H). The protein was expressed and purified by the following procedure. Bacterial cells from a 50 mL overnight culture were inoculated in 6 L of terrific broth media. Once the E. coli culture reached an OD600 of 0.7, the temperature was lowered to 18° C. and recombinant protein expression was induced by the addition of 0.5 mM IPTG. After overnight incubation, the cells were harvested by centrifugation at […] for 45 min in a Sorvall Lynx 6000 (Thermo Fisher) centrifuge with F9-6×1000 LEX rotor. The cell pellets were stored at −80° C. until purification. […] The final product was 98% pure as determined by SDS-PAGE. The concentration of SHP2 protein was determined from the absorbance at 280 nm wavelength, using the calculated molar extinction coefficient for SHP2 protein of 72770 M^−1 cm^−1.
SHP2 enzymatic assay: Phosphatase activity of full-length human SHP2 wild-type enzyme or SHP2 phosphatase domain was measured using fluorogenic 6,8-difluoro-4-methylumbelliferyl phosphate (DiFMUP; Molecular Probes #D6567) as the substrate. […]

[2] = biological target: T2, Hematopoietic Progenitor Kinase 1 (HPK1) (Homo sapiens, UniProt Q92918); assay: KINOMEscan competition binding and Kd dose-response
T2 construct: purchased DiscoverX (KINOMEscan platform)
T2 sequence (Q92918 whole entry): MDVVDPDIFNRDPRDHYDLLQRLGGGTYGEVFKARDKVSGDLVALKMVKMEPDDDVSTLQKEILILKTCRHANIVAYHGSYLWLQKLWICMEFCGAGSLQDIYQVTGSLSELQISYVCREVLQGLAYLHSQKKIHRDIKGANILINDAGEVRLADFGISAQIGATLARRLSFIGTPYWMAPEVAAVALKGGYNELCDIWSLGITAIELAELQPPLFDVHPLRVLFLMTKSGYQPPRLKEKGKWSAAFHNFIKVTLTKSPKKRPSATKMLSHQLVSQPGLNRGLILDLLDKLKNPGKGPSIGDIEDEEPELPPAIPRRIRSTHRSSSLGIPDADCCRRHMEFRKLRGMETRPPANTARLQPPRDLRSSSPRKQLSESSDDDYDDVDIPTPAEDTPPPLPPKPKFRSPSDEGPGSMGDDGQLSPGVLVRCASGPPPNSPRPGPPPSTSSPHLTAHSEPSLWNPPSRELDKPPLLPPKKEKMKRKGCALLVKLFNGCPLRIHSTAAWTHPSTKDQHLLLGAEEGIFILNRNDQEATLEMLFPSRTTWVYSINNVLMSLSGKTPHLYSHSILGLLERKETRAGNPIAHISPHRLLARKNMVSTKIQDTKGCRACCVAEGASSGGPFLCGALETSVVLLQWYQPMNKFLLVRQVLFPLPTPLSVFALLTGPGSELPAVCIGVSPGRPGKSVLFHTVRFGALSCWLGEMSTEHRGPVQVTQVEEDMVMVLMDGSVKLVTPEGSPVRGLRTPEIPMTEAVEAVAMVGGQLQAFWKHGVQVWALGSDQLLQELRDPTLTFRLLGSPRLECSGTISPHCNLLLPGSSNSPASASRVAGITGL
Experimental: Activity of Compound (10b) (1 μM) was assessed against a panel of 419 human kinases (including a set of disease-relevant mutant variants). Assays were conducted using the KINOMEscan™ platform from DiscoverX which measures compound interaction with kinases using active site-directed competition binding assays. Displacement of ligand binding to the kinase by <35% of the control value is considered significant. Of the 419 kinases tested, only 4 kinases reached this level of displacement: Protein kinase C eta (PRKCH), 34% control; Large tumor suppressor kinase 1 (LATS1), 32% control; General control nonderepressible 2 kinase (GCN2), 21% control; and Hematopoietic Progenitor Kinase 1 (HPK1), 4.4% control.
HPK1 is a hematopoietic cell-restricted serine/threonine kinase and is not expressed in any major organs. HPK1 has been implicated in activation of c-Jun N-terminal kinases (JNK) and genetic disruption of HPK1 is reported to enhance the antitumor immune response of T cells and dendritic cells (Hu et al 1996; Sawasdikosol et al 2012).

## Cc1c(N2CCC3(CC2)CO[C@@H](C)[C@H]3N)nc(C)n(-c2cccc(Cl)c2Cl)c1=O (atropisomer, axis not shown; (Ra)) [Compound (10b), 6-((3S,4S)-4-amino-3-methyl-2-oxa-8-azaspiro[4.5]decan-8-yl)-3-(Ra)-(2,3-dichlorophenyl)-2,5-dimethylpyrimidin-4(3H)-one]
[1]
  suppression of enzymatic activity of SHP2 phosphatase domain: did not suppress; also recorded: does not suppress
[2]; 1 μM
  ligand binding, % of control at 1 µM: 4.4%
[2]; dose-response curve
  Kd: 9.8 µM
